Test results taken from ChEMBL document CHEMBL1130350, “Heteroaryl analogues of AMPA. Synthesis and quantitative structure-activity relationships” (J Med Chem, 1997).

What was measured:
[1] = biological target: Glutamate [NMDA] receptor; experiment: In vitro binding affinity against N-methyl-D-aspartate glutamate receptor using [3H]-[…] as radioligand; format: protein-complex assay
[2] = biological target: Glutamate receptor ionotropic AMPA (Rattus norvegicus)
[3] = pKa value determined by potentiometric titrations. 5 is the equivalence volume; initial titrant volume is 9.7; format: physicochemical
[4] = biological target: Glutamate receptor ionotropic kainate
Description: In vitro binding affinity against Ionotropic glutamate receptor kainate (kainic acid) using [3H]KAIN as radioligand

[5] = organism: Rattus norvegicus; experiment: Electrophysiological study in rat cortical slice model; format: functional
[6] = pKa value determined by potentiometric titrations. 5.1 is the equivalence volume; initial titrant volume is 9.4; format: physicochemical
[7] = pKa value determined by potentiometric titrations. 5 is the equivalence volume; initial titrant volume is 9.6; format: physicochemical
[8] = pKa value determined by potentiometric titrations. 4.4 is the equivalence volume; initial titrant volume is 9.8; format: physicochemical
[9] = pKa value determined by potentiometric titrations. 5.3 is the equivalence volume; initial titrant volume is 9.8; format: physicochemical
[10] = pKa value determined by potentiometric titrations. 4.6 is the equivalence volume; initial titrant volume is 10.2; format: physicochemical
[11] = pKa value determined by potentiometric titrations. 4.9 is the equivalence volume; initial titrant volume is 9.7; format: physicochemical
[12] = pKa value determined by potentiometric titrations. 4.5 is the equivalence volume; initial titrant volume is 9.5; format: physicochemical
[13] = pKa value determined by potentiometric titrations. 4.6 is the equivalence volume; initial titrant volume is 9.5; format: physicochemical

Row | IC50 [1] | IC50 [2] | pKa [3] | IC50 [4] | EC50 [5] | pKa [6] | pKa [9] | pKa [10] | pKa [11] | pKa [12] | Compound | pKa [7] | pKa [8] | pKa [13]
1 | > 100 µM | 72 µM | < 3 | > 100 µM | > 1000 µM |  |  |  |  |  | NC(Cc1c(O)noc1-c1nn[nH]n1)C(=O)O (stereo unspecified) |  |  | 
2 | > 100 µM | 54 µM |  | > 100 µM | > 1000 µM | 3.7 |  |  |  |  | Cn1nnnc1-c1onc(O)c1CC(N)C(=O)O (stereo unspecified) |  |  | 
3 | > 100 µM | > 100 µM |  | 74 µM | > 1000 µM |  | < 3.4 |  |  |  | Cn1ccnc1-c1onc(O)c1CC(N)C(=O)O (stereo unspecified) |  |  | 
4 | > 100 µM | 1.5 µM |  | 58 µM | 63 µM |  |  | < 2.4 |  |  | NC(Cc1c(O)noc1-c1nc[nH]n1)C(=O)O (stereo unspecified) |  |  | 
5 | > 100 µM | 48 µM |  | > 100 µM | 550 µM |  |  |  | < 3.4 |  | NC(Cc1c(O)noc1-c1ncc[nH]1)C(=O)O (stereo unspecified) |  |  | 
6 | > 100 µM | 5.8 µM |  | 16 µM | 93 µM |  |  |  |  | < 2.3 | Cn1ncnc1-c1onc(O)c1CC(N)C(=O)O (stereo unspecified) |  |  | 

Row | Compound | IC50 [1] | IC50 [2] | pKa [3] | IC50 [4] | EC50 [5] | pKa [6] | pKa [9] | pKa [10] | pKa [11] | pKa [12] | pKa [7] | pKa [8] | pKa [13]
7 | Cn1nnc(-c2onc(O)c2CC(N)C(=O)O)n1 (stereo unspecified) | > 100 µM |  |  | 41 µM | 0.92 µM |  |  |  |  |  | 2.9 |  | 
8 | NC(Cc1c(O)noc1-c1nccs1)C(=O)O (stereo unspecified) | > 100 µM | 0.094 µM |  | 4.9 µM | 2.3 µM |  |  |  |  |  |  | < 2 | 
9 | Cc1onc(O)c1CC(N)C(=O)O [(R,S)-AMPA] | > 100 µM |  |  |  | 5.4 µM |  |  |  |  |  |  |  | 
10 | Cn1cnc(-c2onc(O)c2CC(N)C(=O)O)n1 (stereo unspecified) | > 100 µM | 0.7 µM |  | > 100 µM | 11 µM |  |  |  |  |  |  |  | < 2.3
